US20030206891A1, “Rapamycin-based biological regulation” (ARIAD Gene Therapeutics, Inc., priority 1995, published 2003)
Values belong to the compound of their own block, whether it stands above or below them.

Experiments:
FKBP = target: T1, FKBP (Homo sapiens, UniProt P62942); test: Competitive fluorescence polarization (FP) assay of binding to FKBP with fluoresceinated FK506 probe AP1491
T1 construct: made in house

[1] = test system: HT1080 cells expressing myristoylated FRAP-FKBP-Fas or (FKBPx2)-Fas chimeras; test: Regulated apoptosis of stably transfected HT1080 cells, alamar blue viability; type: cell-based, human
FRAP = target: T2, FRAP (Homo sapiens, UniProt P42345+P62942); test: SEAP reporter assay in HT20-6 cells for binding of rapalog-FKBP complexes to FRAP; type: cell-based; details: serial dilutions, 22 hours, FIG. 15
T2 construct: expressed in transfected cells; host or cells: HT20-6 (clone of human HT1080 fibrosarcoma cells)

[2] = target: FRAP (amino acids 2015-2114) displayed on phage with His6-tagged FKBP (Homo sapiens, UniProt P42345+P62942); test: Binding enrichment of FRAP display phagemids on His6-flag-FKBP with compound, captured on Ni-NTA agarose; details: 1 μM His6-flag-FKBP, 2.5 μl of 100 pM compound in 250 μl, 1 hour
transfected HT1080 cells = test: Rapamycin-dependent production of hGH in nu/nu mice transplanted with transfected HT1080 cells; type: in vivo
Text: To transplant transiently transfected cells into mice, 2×10^6 transfected HT1080 cells, were suspended in 100 _l PBS/0.1% BSA/0.1% glucose buffer, and administered into four intramuscular sites (approximately 25 _l per site) on the haunches and flanks of the animals. Control mice received equivalent volume injections of buffer alone.
(§1) The accuracy of the dosing solutions was confirmed by HPLC analysis prior to intravenous administration into the tail veins. […] In addition, other control mice, bearing transfected cells, received only the rapamycin vehicle.
Blood was collected by either anesthetizing or sacrificing mice via CO2 inhalation. Anesthetized mice were used to collect 100 _l of blood by cardiac puncture. The mice were revived and allowed to recover for subsequent blood collections. Sacrificed mice were immediately exsanguinated. Blood samples were allowed to clot for 24 hours, at 4° C., and sera were collected following centrifugation at 1000×g for 15 minutes. Serum hGH was measured by the Boehringer Mannheim non-isotopic sandwich ELISA (Cat No.1 585 878). […] Recommended assay instructions were followed.
Mice were administered transfected HT1080 cells as described above. […] The four remaining doses were given under anesthesia, immediately subsequent to blood collection, at 16, 32, 48, and 64 hours. […]

[3] = target: Lex-FKBP and Lex-FRAP proteins (Homo sapiens, UniProt P42345+P62942); test: Gel mobility shift assay of rapamycin-dependent DNA binding by Lex-FKBP/Lex-FRAP; type: biochemical; details: increasing amounts of rapamycin, FIG. 14 lanes 2-4
[4] = Pharmacokinetics in nu/nu mice after intravenous administration; type: in vivo
Text: as §1

[5] = rapamycin C24 oximes, competitive FP vs AP1491 probe, recombinant FKBP
[6] = C7 rapalog experiment, competitive FP

T1 sequence (P62942 whole entry): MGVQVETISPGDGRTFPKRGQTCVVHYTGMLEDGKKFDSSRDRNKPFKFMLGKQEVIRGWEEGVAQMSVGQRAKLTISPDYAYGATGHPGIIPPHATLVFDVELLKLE
Sequence of FRAP (amino acids 2015-2114) displayed on phage with His6-tagged FKBP (P42345 2015-2114): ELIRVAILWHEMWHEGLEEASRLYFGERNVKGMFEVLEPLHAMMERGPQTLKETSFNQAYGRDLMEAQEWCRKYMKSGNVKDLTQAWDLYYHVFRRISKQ
Sequence of FRAP (amino acids 2015-2114) displayed on phage with His6-tagged FKBP (P62942 with tags, fused parts or gaps): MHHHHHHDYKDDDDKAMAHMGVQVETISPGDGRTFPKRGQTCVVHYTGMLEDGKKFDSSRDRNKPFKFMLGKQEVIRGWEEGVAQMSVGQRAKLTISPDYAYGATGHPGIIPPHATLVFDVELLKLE
T2 sequence (P42345 2025-2113): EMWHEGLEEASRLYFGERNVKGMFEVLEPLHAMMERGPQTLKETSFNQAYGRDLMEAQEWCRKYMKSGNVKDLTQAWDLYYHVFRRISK
T2 sequence (P62942 2-108): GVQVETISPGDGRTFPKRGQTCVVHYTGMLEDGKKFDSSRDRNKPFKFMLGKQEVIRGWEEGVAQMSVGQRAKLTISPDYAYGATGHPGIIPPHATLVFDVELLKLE
Sequence of Lex-FKBP and Lex-FRAP proteins (P62942 2-108): as above
Sequence of Lex-FKBP and Lex-FRAP proteins (P42345 2025-2113): as the sequence (P42345 2025-2113) above

fold loss in affinity (=IC50/IC50 of rapamycin) (FKBP; C24 oxime experiment): 304 | IC50 (FKBP; [5]): 2400 nM
Compound: COC1CC2CCC(C)C(O)(O2)C(=O)C(=O)N2CCCCC2C(=O)OC(C(C)CC2CCC(O)C(OC)C2)CC(=NOCC(N)=O)C(C)C=C(C)C(O)C(OC)C(=O)C(C)CC(C)C=CC=CC=C1C (single isomer, unassigned) [AP1729, Rapamycin (E and Z)-24-(O-carboxamidomethyloxime)]

fold loss in affinity (=IC50/IC50 of rapamycin) (FKBP; C24 oxime experiment): 40.5 | IC50 (FKBP; [5]): 320 nM
Compound: COC1CC2CCC(C)C(O)(O2)C(=O)C(=O)N2CCCCC2C(=O)OC(C(C)CC2CCC(O)C(OC)C2)CC(=NOCC(N)=O)C(C)C=C(C)C(O)C(OC)C(=O)C(C)CC(C)C=CC=CC=C1C (single isomer, unassigned) [AP1730, Rapamycin (E and Z)-24-(O-carboxamidomethyloxime)]

Compound: CCC(C)(C)C(=O)C(=O)N1CCCCC1C(=O)O[C@H](CCc1ccc(OC)c(OC)c1)c1cccc(OCC(=O)NCCOCCNC(=O)COc2cccc([C@@H](CCc3ccc(OC)c(OC)c3)OC(=O)C3CCCCN3C(=O)C(=O)C(C)(C)CC)c2)c1 (stereo partly drawn) [AP1428]
extent of cell death of cells expressing a myristoylated (FKBPx2)-Fas construct, relative to rapamycin on M30/M31 cells ([1]; FIG. 13(c)): comparable

fold loss in affinity (=IC50/IC50 of rapamycin) (FKBP; C24 oxime experiment): 1620 | IC50 (FKBP; [5]): 16200 nM
Compound: COC1CC2CCC(C)C(O)(O2)C(=O)C(=O)N2CCCCC2C(=O)OC(C(C)CC2CCC(O)C(OC)C2)CC(=NOCC(=O)O)C(C)C=C(C)C(O)C(OC)C(=O)C(C)CC(C)C=CC=CC=C1C (stereo not drawn) [AP1686, Rapamycin (E and Z)-24-(O-carboxymethyloxime)]

fold loss in affinity (=IC50/IC50 of rapamycin) (FKBP; C24 oxime experiment): 813
Compound: COC1CC2CCC(C)C(O)(O2)C(=O)C(=O)N2CCCCC2C(=O)OC(C(C)CC2CCC(O)C(OC)C2)CC(=NOCC(=O)O)C(C)C=C(C)C(O)C(OC)C(=O)C(C)CC(C)C=CC=CC=C1C (stereo not drawn) [AP1687, Rapamycin (E and Z)-24-(O-carboxymethyloxime)]

fold loss in affinity (=IC50/IC50 of rapamycin) (FKBP; C7 rapalog experiment): 2.5 | IC50 (FKBP; [6]): 17.8 nM | FRAP affinity as indicated by SEAP production (FRAP): modest reduction in FRAP affinity
Compound: CO[C@@H]1CC(C[C@@H](C)C2CC(=O)[C@H](C)/C=C(\C)[C@@H](O)[C@@H](OC)C(=O)[C@H](C)C[C@H](C)/C=C/C=C/C=C(\C)[C@@H](OC(C)C)C[C@@H]3CC[C@@H](C)[C@@](O)(O3)C(=O)C(=O)N3CCCC[C@H]3C(=O)O2)CC[C@H]1O (stereo partly drawn) [AP1700, 7S-isopropoxyrapamycin]

fold loss in affinity (=IC50/IC50 of rapamycin) (FKBP; C7 rapalog experiment): 3.0 | IC50 (FKBP; [6]): 24.5 nM
Compound: COC1CC(CC(C)C2CC(=O)C(C)C=C(C)C(O)C(OC)C(=O)C(C)CC(C)C=CC=CC=C(C)C(c3c[nH]c4ccccc34)CC3CCC(C)C(O)(O3)C(=O)C(=O)N3CCCCC3C(=O)O2)CCC1O (stereo not drawn) [AP1702, 7S-(3-indolyl)rapamycin]
FRAP affinity as indicated by SEAP production (FRAP): almost completely abolish SEAP expression

enrichment of FRAP phage compared to the starting mixture [2]: 2.4 fold
Compound: C=CC[C@@H]1/C=C(\C)C[C@H](C)C[C@H](OC)[C@H]2O[C@@](O)(C(=O)C(=O)N3CCCC[C@H]3C(=O)O[C@H](/C(C)=C/[C@@H]3CC[C@@H](O)[C@H](OC)C3)[C@H](C)[C@@H](O)CC1=O)[C@H](C)C[C@@H]2OC [FK506]

Compound: CO[C@H]1C[C@@H]2CC[C@@H](C)[C@@](O)(O2)C(=O)C(=O)N2CCCC[C@H]2C(=O)O[C@H]([C@H](C)C[C@@H]2CC[C@@H](O)[C@H](OC)C2)CC(=O)[C@H](C)/C=C(\C)[C@@H](O)[C@@H](OC)C(=O)[C@H](C)C[C@H](C)/C=C/C=C/C=C/1C [rapamycin, Rapamycin]
serum hGH production vs dose (transfected HT1080 cells; 0.01-10.0 mg/kg i.v., 17 hours after administration, FIG. 6): dose-responsive production of hGH | time of peak serum hGH after treatment (transfected HT1080 cells; single 10.0 mg/kg i.v. dose, FIG. 7): peaked at eight hours | enrichment of FRAP phage compared to the starting mixture [2]: 271 fold | effect on survival of cells not expressing mixed chimeric proteins ([1]; FIG. 13(c)): minimal effects | survival of cells stably transfected with M30 and M31-expressing constructs ([1]; with 50 ng/ml actinomycin D, about 20 hours, FIG. 13(a),(b)): potently reduced | formation of specific protein-DNA complex [3]: concomitant appearance of a specific complex

fold loss in affinity (=IC50/IC50 of rapamycin) (FKBP; C7 rapalog experiment): 20.8 | fold loss in affinity (=IC50/IC50 of rapamycin) (FKBP; C24 oxime experiment): 18.6
Compound: C14-desoxo-rapamycin [reference compound]

Compound: hGH: human growth hormone secreted by the engineered cells (reporter gene product)
half-life of clearance from the circulation [4]: less than four minutes
